Legend:
Test in all cases: Kinase selectivity, Mobility shift assay
Assay type in all cases: biochemical
GSK3β = GSK3β (Homo sapiens (Human), UniProt P49841)
Procedure: (§1) Object: In this assay, the inhibitory activity of the test substance on the kinases listed in Table 3 was determined, and therefore the selectivity of the present compound was determined.
(§2) Except for the BRAF V600E kinase in Table 3, the Mobility shift assay was used for other kinases.
(§3) 1. Preparation of Agents:
(§4) • 1.1 1-fold kinase buffer without MnCl2: 50 mM HEPES, pH 7.5, 0.0015% Brij-35, 10 mM MgCl2, 2 mM DTT. • 1.2 1-fold kinase buffer with MnCl2: 50 mM HEPES, pH 7.5, 0.0015% Brij-35, 10 mM MgCl2, 10 mM MnCl2, 2 mM DTT. • 1.3 Termination solution: 100 mM HEPES, pH 7.5, 0.0015% Brij-35, 0.2% Coating Reagent#3, 50 mM EDTA. • 1.4 2.5-fold kinase solution: The kinase was added to the 1-fold kinase buffer to form a 2.5-fold kinase solution. • 1.5 2.5-fold substrate solution: FAM fluorescence-labelled polypeptide and ATP were added to the 1-fold kinase buffer to form a 2.5-fold substrate solution. 2. Preparation of 5-fold compound
(§5) The final test concentration of the compound was 10 μM at maximum. Firstly, a 50-fold concentration (i.e. 500 μM) was prepared with 100% DMSO. The compound was diluted with 100% DMSO by 5 folds at 5 concentrations (successively 500 μM, 100 μM, 20 μM, 4 μM, and 0.8 μM). After diluting with 1-fold kinase buffer by 10 folds, 5 μl of the samples were transferred to a 384-well reaction plate. Two negative control wells and two positive control wells were set at each line respectively. Replication was made in a 96-well plate in five concentrations of 5-fold compound. 10% DMSO was added to the positive control well, and 5 μl of EDTA (250 mM) was added to the negative control well.
(§6) • 3.1 To the 384-well reaction plate was added 5-fold compound dissolved in 10% DMSO at 5 μl/well. • 3.2 To the 384-well reaction plate was added 2.5-fold kinase solution at 10 μl/well. The plate was incubated at room temperature for 10 mins. • 3.3 To the 384-well reaction plate was added 2.5-fold substrate solution at 10 μl/well. The plate was incubated at 28° C. for a certain period. • 3.4 25 μl termination solution was added to terminate the reaction. The conversion was read from Caliper. 4. Inhibition rate calculation Inhibition rate (%)=(maximum−sample value)/(maximum−minimum)×100 • wherein: • maximum refers to the conversion at the DMSO control well, • minimum refers to the conversion at the control well without kinase. Lanthascreen Analysis Method for the BRAF V600E Kinase 1. Preparation of Agents: • 1.1 2-fold kinase solution: using 1-fold kinase buffer to prepare 2-fold kinase solution, with a final concentration of 0.35 nM of BRAFV600E; • 1.2 4-fold substrate solution: using 1-fold kinase buffer to prepare 4-fold substrate solution, with a final substrate solution concentration of 0.2 μM of Fluorescein-MAP2K1 and 1.5 μM of ATP. 2. Preparation of 4-fold compound • The final test concentration of the compound was 10 μM at maximum. Firstly, a 100-fold concentration (i.e. 1000 μM) was prepared with 100% DMSO. The compound was diluted with 100% DMSO by 5 folds at 5 concentrations. The compound series was identical to that in the Mobility Shift Assay. After diluting with 1-fold kinase buffer by 25 folds, the resulting samples were shaked and mixed evenly on a plate-shaker for 10 mins. 3. Procedure • 3.1 To the 384-well reaction plate was added 4-fold compound dissolved in 10% DMSO at 2.5 µl/well; • 3.2 To the 384-well reaction plate was added 2-fold kinase solution at 5 μl/well, and to the negative control wells were added 1-fold kinase buffer. The samples were shaked, mixed evenly, and kept standing at room temperature. • 3.3 To the 384-well reaction plate was added 4-fold substrate solution at 2.5 μl/well. The plate was reacted, shaked, mixed evenly and incubated at room temperature for one hour; • 3.4 Reaction result detection: 2-fold detection solution was prepared, with a final concentration of 2 nM of Antibody and 10 mM of EDTA. 10 μl of the detection solution was transferred to the 384-well plate to terminate the reaction. […]

CAMK2a = CAMK2a (Homo sapiens (Human), UniProt Q9UQM7)
Procedure: as §1, §2, §3, §4, §5, §6

PAK2 = PAK2 (Homo sapiens (Human), UniProt Q13177)
Procedure: as §1, §2, §3, §4, §5, §6

PIM1 = PIM1 (Homo sapiens (Human), UniProt P11309)
Procedure: as §1, §2, §3, §4, §5, §6

SGK = SGK (Homo sapiens (Human), UniProt O00141)
Procedure: as §1, §2, §3, §4, §5, §6

ALK = ALK (Homo sapiens (Human), UniProt Q9UM73)
Procedure: as §1, §2, §3, §4, §5, §6

JAK2 = JAK2 (Homo sapiens (Human), UniProt O60674)
Procedure: as §1, §2, §3, §4, §5, §6

IKKB = IKKB (Homo sapiens (Human), UniProt O14920)
Procedure: as §1, §2, §3, §4, §5, §6

PDK1 = PDK1 (Homo sapiens (Human), UniProt O15530)
Procedure: as §1, §2, §3, §4, §5, §6

NEK2 = NEK2 (Homo sapiens (Human), UniProt P51955)
Procedure: as §1, §2, §3, §4, §5, §6

MAPKAPK2 = MAPKAPK2 (Homo sapiens (Human), UniProt P49137)
Procedure: as §1, §2, §3, §4, §5, §6

MST2 = MST2 (Homo sapiens (Human), UniProt Q13188)
Procedure: as §1, §2, §3, §4, §5, §6

MSK1 = MSK1 (Homo sapiens (Human), UniProt O75582)
Procedure: as §1, §2, §3, §4, §5, §6

SRC = SRC (Homo sapiens (Human), UniProt P12931)
Procedure: as §1, §2, §3, §4, §5, §6

ABL = ABL (Homo sapiens (Human), UniProt P00519)
Procedure: as §1, §2, §3, §4, §5, §6

Tie2 = Tie2 (Homo sapiens (Human), UniProt Q02763)
Procedure: as §1, §2, §3, §4, §5, §6

IGF1R = IGF1R (Homo sapiens (Human), UniProt P08069)
Procedure: as §1, §2, §3, §4, §5, §6

ZAP70 = ZAP70 (Homo sapiens (Human), UniProt P43403)
Procedure: as §1, §2, §3, §4, §5, §6

PDGFRb = PDGFRb (Homo sapiens (Human), UniProt P09619)
Procedure: as §1, §2, §3, §4, §5, §6

Chain of PDGFRb (P09619 33-1106, species assumed): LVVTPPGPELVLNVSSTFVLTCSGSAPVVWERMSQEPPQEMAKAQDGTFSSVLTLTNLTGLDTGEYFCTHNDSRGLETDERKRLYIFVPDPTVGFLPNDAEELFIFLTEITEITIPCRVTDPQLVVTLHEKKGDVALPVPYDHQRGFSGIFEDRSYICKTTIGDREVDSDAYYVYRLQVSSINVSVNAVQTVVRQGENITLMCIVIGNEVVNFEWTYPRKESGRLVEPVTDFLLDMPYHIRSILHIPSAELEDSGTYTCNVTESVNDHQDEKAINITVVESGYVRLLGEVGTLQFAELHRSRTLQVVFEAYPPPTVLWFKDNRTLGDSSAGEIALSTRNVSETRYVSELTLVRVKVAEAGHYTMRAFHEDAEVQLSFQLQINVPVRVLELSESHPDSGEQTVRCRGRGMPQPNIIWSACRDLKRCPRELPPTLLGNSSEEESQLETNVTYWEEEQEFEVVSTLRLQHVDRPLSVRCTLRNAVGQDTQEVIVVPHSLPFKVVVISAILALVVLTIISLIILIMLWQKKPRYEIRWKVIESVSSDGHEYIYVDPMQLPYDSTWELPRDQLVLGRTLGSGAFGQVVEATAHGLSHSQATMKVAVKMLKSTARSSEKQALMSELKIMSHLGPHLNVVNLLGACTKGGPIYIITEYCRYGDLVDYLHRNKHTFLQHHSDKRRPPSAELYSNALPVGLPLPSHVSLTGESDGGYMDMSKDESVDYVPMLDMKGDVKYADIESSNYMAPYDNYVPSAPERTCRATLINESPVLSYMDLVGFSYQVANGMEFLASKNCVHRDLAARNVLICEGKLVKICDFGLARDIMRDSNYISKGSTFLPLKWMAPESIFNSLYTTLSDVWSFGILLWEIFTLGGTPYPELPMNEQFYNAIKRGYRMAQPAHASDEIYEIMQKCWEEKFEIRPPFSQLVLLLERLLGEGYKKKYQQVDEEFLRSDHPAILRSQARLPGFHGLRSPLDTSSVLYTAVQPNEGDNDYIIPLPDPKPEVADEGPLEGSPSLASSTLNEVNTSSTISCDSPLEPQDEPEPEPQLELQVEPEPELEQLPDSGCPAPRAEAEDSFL
Chain of PDK1 (O15530 whole entry): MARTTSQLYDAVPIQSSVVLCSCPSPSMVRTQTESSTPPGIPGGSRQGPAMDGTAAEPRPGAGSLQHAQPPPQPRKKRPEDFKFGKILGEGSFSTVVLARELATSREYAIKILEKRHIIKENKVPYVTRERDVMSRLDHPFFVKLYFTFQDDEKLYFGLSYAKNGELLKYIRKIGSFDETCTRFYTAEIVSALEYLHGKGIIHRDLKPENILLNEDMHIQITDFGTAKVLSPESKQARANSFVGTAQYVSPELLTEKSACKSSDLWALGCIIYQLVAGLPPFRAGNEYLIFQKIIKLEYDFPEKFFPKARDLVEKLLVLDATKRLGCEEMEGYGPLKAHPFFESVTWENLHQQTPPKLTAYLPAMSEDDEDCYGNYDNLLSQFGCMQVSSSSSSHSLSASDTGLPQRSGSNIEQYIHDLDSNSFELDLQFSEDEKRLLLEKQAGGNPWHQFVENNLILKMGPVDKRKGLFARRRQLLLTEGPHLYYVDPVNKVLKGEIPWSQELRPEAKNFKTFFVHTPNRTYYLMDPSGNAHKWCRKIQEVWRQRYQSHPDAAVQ
Chain of JAK2 (O60674 whole entry, species assumed): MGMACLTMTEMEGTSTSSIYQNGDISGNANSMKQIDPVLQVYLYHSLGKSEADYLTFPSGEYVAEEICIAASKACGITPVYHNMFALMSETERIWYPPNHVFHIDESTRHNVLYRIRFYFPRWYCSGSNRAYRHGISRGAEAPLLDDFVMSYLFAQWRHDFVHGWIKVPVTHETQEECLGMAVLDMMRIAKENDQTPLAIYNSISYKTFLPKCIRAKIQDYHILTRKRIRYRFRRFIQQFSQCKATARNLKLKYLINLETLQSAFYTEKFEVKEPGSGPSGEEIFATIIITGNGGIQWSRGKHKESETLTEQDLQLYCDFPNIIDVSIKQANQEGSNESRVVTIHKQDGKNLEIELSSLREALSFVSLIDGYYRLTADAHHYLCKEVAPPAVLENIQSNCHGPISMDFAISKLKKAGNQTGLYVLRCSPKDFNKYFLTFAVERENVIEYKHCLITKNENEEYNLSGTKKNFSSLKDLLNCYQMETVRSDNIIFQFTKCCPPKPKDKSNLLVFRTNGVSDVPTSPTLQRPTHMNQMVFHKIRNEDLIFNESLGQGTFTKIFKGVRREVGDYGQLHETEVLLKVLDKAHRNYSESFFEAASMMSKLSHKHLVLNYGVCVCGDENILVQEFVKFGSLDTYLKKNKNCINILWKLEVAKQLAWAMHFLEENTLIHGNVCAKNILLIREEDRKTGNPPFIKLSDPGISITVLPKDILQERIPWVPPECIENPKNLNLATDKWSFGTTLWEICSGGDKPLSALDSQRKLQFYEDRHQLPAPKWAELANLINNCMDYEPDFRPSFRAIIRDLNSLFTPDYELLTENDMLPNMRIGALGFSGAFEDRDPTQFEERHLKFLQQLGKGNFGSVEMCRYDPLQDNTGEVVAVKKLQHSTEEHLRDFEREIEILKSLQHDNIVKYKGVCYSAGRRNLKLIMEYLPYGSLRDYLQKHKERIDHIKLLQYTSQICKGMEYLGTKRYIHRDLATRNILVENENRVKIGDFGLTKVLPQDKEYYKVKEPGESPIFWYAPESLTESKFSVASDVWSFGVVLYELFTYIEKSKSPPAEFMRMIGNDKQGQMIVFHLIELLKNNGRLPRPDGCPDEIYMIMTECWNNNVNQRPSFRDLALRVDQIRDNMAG
Chain of PIM1 (P11309 whole entry, species assumed): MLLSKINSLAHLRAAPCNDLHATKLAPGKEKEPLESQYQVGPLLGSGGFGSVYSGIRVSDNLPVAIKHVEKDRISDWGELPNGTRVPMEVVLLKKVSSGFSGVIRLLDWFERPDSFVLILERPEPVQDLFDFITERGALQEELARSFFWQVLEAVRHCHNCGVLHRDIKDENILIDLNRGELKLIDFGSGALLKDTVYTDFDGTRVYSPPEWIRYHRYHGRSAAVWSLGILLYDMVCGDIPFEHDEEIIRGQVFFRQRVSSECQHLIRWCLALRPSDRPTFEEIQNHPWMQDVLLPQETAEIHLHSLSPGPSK
Chain of NEK2 (P51955 whole entry, species assumed): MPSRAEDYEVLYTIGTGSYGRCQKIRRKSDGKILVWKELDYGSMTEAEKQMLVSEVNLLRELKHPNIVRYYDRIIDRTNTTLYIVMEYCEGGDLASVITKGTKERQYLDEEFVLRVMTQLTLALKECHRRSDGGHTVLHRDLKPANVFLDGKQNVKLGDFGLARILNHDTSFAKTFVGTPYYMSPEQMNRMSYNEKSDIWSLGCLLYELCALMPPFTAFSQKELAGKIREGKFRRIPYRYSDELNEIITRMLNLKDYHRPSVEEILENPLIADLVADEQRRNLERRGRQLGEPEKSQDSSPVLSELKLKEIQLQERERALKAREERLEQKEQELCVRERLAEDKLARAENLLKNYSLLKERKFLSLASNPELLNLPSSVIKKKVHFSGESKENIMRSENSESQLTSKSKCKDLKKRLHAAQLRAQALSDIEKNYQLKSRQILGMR
Chain of GSK3β (P49841 whole entry, species assumed): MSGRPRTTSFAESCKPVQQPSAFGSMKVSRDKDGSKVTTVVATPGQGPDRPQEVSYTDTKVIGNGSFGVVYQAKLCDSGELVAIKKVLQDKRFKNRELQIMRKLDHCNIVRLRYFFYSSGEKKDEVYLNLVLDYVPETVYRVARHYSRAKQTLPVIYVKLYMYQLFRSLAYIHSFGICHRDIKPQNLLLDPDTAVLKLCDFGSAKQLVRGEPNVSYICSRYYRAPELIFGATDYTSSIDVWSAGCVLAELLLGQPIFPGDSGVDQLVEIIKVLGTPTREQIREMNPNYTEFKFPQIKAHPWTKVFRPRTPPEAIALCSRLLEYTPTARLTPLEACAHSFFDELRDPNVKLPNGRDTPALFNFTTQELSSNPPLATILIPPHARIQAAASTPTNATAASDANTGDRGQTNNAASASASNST
Chain of MAPKAPK2 (P49137 whole entry, species assumed): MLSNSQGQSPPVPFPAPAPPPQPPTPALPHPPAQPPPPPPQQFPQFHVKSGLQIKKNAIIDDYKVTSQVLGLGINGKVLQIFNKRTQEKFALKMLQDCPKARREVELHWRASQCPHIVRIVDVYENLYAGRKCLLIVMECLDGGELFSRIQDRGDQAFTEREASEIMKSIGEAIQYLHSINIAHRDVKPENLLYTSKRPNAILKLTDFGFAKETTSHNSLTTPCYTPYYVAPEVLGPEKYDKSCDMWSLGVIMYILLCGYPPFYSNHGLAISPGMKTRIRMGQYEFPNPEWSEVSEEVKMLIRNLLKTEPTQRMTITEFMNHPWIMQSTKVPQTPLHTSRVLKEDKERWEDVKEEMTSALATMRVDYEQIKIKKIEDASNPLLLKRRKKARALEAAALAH
Chain of PAK2 (Q13177 whole entry, species assumed): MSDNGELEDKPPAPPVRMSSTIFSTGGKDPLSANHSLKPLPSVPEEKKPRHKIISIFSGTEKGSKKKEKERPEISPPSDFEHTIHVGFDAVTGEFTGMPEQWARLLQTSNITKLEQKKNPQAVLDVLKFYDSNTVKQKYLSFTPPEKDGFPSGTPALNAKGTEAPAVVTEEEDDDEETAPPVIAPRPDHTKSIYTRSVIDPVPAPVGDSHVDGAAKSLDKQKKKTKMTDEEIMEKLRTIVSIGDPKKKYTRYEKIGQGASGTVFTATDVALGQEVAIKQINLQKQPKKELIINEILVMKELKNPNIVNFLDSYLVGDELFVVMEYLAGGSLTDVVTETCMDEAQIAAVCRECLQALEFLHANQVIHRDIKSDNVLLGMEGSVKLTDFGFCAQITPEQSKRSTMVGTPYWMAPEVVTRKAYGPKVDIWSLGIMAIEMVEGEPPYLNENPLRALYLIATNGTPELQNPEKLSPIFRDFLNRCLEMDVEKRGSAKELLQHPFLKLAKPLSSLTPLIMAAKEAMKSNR

SMILES: Nc1ccc(-c2ccc3ncc4c(=O)[nH]c(=O)n(-c5cccc(C(F)(F)F)c5)c4c3n2)cn1 [Compound 5, 9-(6-aminopyridin-3-yl)-1-(3-(trifluoromethyl)phenyl)pyrimido[5,4-c][1,5]naphthyridine-2,4(1H,3H)-dione]
- IC50 (GSK3β): > 10000 nM
- IC50 (CAMK2a): > 10000 nM
- IC50 (PAK2): > 10000 nM
- IC50 (PIM1): > 10000 nM
- IC50 (SGK): > 10000 nM
- IC50 (ALK): 1170 nM
- IC50 (JAK2): > 10000 nM
- IC50 (IKKB): > 10000 nM
- IC50 (PDK1): > 10000 nM
- IC50 (NEK2): > 10000 nM
- IC50 (MAPKAPK2): > 10000 nM
- IC50 (MST2): > 10000 nM
- IC50 (MSK1): > 10000 nM
- IC50 (SRC): 842 nM
- IC50 (ABL): > 10000 nM
- IC50 (Tie2): 2430 nM
- IC50 (IGF1R): > 10000 nM
- IC50 (ZAP70): > 10000 nM
- IC50 (PDGFRb): > 10000 nM

— patent US9365572B2, “PI3K and/or mTOR inhibitor” (XUANZHU PHARMA CO., LTD., priority 2012, dated 2016)
